Test results published in patent US20070293559A1, “Orally Administered Agent For Preventing Or Improving Dry Station Of Skin” (priority 2004, published 2007).

Legend:
HOS:HR-1 mice [1] = assay: Water content of the skin surface (SKICON-200) after oral ingestion in feed; assay type: in vivo; details: CE-2 feed containing 0.5% or 1% by weight of hydroxyproline, two to five weeks of feeding, relative to CE-2 group
Experimental: HOS:HR-1 mice (male, 5 weeks old, purchased from SLC Japan) were used in the test. The breeding conditions were that the room temperature was 22±2° C., the humidity was 35±15% and a feed and water were freely ingested.
Each test group consisted of 10 mice. A commercially available powder feed CE-2 (manufactured by Clea Japan) was fed to mice of the first group, CE-2 containing 0.5% by weight of trans-4-hydroxy-L-proline (hereinafter also referred to simply as hydroxyproline; manufactured by Kyowa Hakko Kogyo Co., Ltd.) was fed to mice of the second group, and CE-2 containing 1% by weight of hydroxyproline was fed to mice of the third group.
The water content of the skin surface on the back thigh upper portion of each mouse was measured with SKICON-200 (manufactured by IBS) every one week, from two weeks to five weeks after the start-up of the feeding of each feed. The measurement was conducted ten times for each mouse, and an average value of each mouse was obtained. Further, an average value of each test group was calculated.
The relative epidermal water content was calculated according to the following formula using the average value. Relative epidermal water content (%)=(A2/A1)×100 • A1: Epidermal water content of the first group • A2: Epidermal water content of the second or third group

HOS:HR-1 mice [2] = assay: Transepidermal water loss (TEWL) in mice with dry skin induced by special feed; assay type: in vivo; details: for TEWL value: right rump, group average
Experimental: HOS:HR-1 mice (female, 4 weeks old, purchased from SLC Japan) were used in the test. The breeding conditions were that the room temperature was 22±2° C., the humidity was 50±5% and a feed and water were freely ingested.
Each test group consisted of 10 mice. A commercially available powder feed CE-2 was fed to mice of the first group, a special feed (manufactured by Nippon Nosan Kogyo K.K.) was fed to mice of the second group, the special feed containing 0.5% by weight of hydroxyproline was fed to mice of the third group, and the special feed containing 1% by weight of hydroxyproline was fed to mice of the fourth group. The dry skin was induced in HOS:HR-1 mice by feeding of the special feed (The journal of international medical research pharmacology, 32, 392-399 (2004)).
A transepidermal water loss (TEWL) value of the right rump of each mouse was measured as an index of a barrier function of stratum corneum at the start-up of the feeding of each feed, after four weeks and after six weeks using Tewameter TM210 (Courage+Khazaka electronic GmbH, Germany), and an average value of each group was calculated.

O=C(O)[C@@H]1C[C@@H](O)CN1 [hydroxyproline, trans-4-hydroxy-L-proline]
water content of the skin (relative epidermal water content, FIG. 1) (HOS:HR-1 mice [1]): markedly improved
transepidermal water loss, t-test in comparison with the second group (HOS:HR-1 mice [2]; fourth group (1% hydroxyproline in special feed), risk rate of less than 5% defined as significant): significant difference
TEWL value (HOS:HR-1 mice [2]; fourth group: special feed containing 1% by weight of hydroxyproline, feeding period 0 week (start-up)): 5.07 g/m^2/hour
TEWL value (HOS:HR-1 mice [2]; fourth group: special feed containing 1% by weight of hydroxyproline, feeding period 4 weeks): 25.07 g/m^2/hour
TEWL value (HOS:HR-1 mice [2]; fourth group: special feed containing 1% by weight of hydroxyproline, feeding period 6 weeks): 25.40 g/m^2/hour
barrier function of stratum corneum (HOS:HR-1 mice [2]; oral ingestion of hydroxyproline): effect of improving the barrier function of stratum corneum
increase in transepidermal water loss (HOS:HR-1 mice [2]; third and fourth groups (0.5% and 1% hydroxyproline in special feed) versus second group (special feed)): suppressed dependently on the concentration
TEWL value (HOS:HR-1 mice [2]; third group: special feed containing 0.5% by weight of hydroxyproline, feeding period 0 week (start-up)): 4.99 g/m^2/hour
TEWL value (HOS:HR-1 mice [2]; third group: special feed containing 0.5% by weight of hydroxyproline, feeding period 4 weeks): 29.80 g/m^2/hour
TEWL value (HOS:HR-1 mice [2]; third group: special feed containing 0.5% by weight of hydroxyproline, feeding period 6 weeks): 29.04 g/m^2/hour
